Results taken from patent US20060189678A1, “4,5-dihydronaphtho[1,2-b]thiophene derivative” (priority 2003, published 2006).

How the values were obtained:
[1] = tested on: Male KKAy mice (model for type 2 diabetes); test: Triglyceride content in the liver of KKAy mice (Triglyceride E Test Wako); type: in vivo; conditions: n=6, subcutaneous 3 mg/5 mL/kg twice a day for 2 weeks, control group 61.7, healthy group 12.5, * P<0.05, ** P<0.01
Procedure: (§1) Male KKAy mice (11 to 12 weeks old) (each n=6) were used as a model for type 2 diabetes. 11% sulfobutyl ether-β-cyclodextrin was added to the compounds of Examples 1 and 59, and these products were administered subcutaneously in a dose of 3 mg/5 mL/kg, twice a day, continuously for 2 weeks. A group that was given just the vehicle was used as a control group, and male C57BL/6J mice (11 to 12 weeks old) (n=6) that had similarly been given the vehicle were used for a healthy group. The livers were collected, and a Triglyceride E Test Wako (Wako Pure Chemicals) was used to quantify the triglyceride content in the liver. […] Blood was also sampled from the orbital venous plexus, and the glucose level in the separated serum was quantified by enzyme method using a L-type Wako GLU2 (Wako Pure Chemicals).

[2] = tested on: Male KKAy mice (model for type 2 diabetes); test: Serum glucose level in KKAy mice (enzyme method, L-type Wako GLU2); type: in vivo; conditions: n=6, subcutaneous 3 mg/5 mL/kg twice a day for 2 weeks, serum from orbital venous plexus blood, control group 532, healthy group 211, ** P<0.01
Procedure: as §1

Row | Structure (SMILES) | Triglyceride content in liver [1] | Blood glucose level [2]
1 | Cc1cc(C)c2c(c1)-c1sc(CCO)cc1CC2 [Example 59, 2-(2-hydroxyethyl)-4,5-dihydro-6,8-dimethylnaphtho[1,2-b]thiophene] | 34.8** mg/g liver | 269** mg/dL
2 | CC(=O)c1cc2c(s1)-c1cc(C)cc(C)c1CC2 [Example 1, 2-acetyl-4,5-dihydro-6,8-dimethylnaphtho[1,2-b]thiophene] | 47.5* mg/g liver | 491 mg/dL
